Results published in US4226610A, “Herbicidal compounds, preparation thereof and herbicides containing the same” (Meiji Selka Kaisha, Ltd., priority 1978, dated 1980).
Where a name gives a salt, the structure may show the parent alone.

Tests used:
Japanese bush cranberry = assay: Experiment 3 foliar application to naturally growing shrubs; type: in vivo, Viburnum dilatatum Thunb.; conditions: after 3 months
Text: (§1) The detail of the assessment made in the following Experiments of the invention was as follows:
(§2) Four months after treatment, evaluation was made for inhibition of reproduction expressed in terms of symbols ranging from (-) to (+++) where (-) means no reproduction, namely complete suppression of reproduction, (±) remarkable suppression of reproduction; (+) considerable suppression of reproduction; (++) medium supprestion of reproduction; and (+++) no suppression of reproduction.
(§3) The compounds of the invention and other compounds listed in Table 5. were diluted to prescribed concentrations and sprayed onto naturally growing shrubs by foliar application in an amount of 150 liter per 10 are.
(§4) 0.1% of octylphenyl polyoxyethanol was added as the surfactant. The killing index (0, no effect; 5, death) after 1 month and 3 months, and the reproduction-inhibiting effect (-, no reproduction; +++, maximum reproduction) after 3 months were determined.

chigaya = assay: Experiment 1 foliar application to naturally growing weeds; type: in vivo, Imperata cylindrica Beauv.; conditions: for Reproduction-inhibiting effect: 4 months
Text: as §1, §2
(§5) The compounds of the invention and other compounds for comparison listed in Table 3 were diluted to prescribed concentrations and sprayed to naturally growing weeds by foliar application in an amount of 150 liter per 10 are.
(§6) 0.1% of octylphenyl polyoxyethanol was added as a surfactant.
(§7) The killing index (0, no effect, 5, death) after 21 days, and the reproduction-inhibiting effect (-, no reproduction; +++, maximum reproduction) after 2 months (manna grass and cockspar grass) and 4 months (other weeds) were determined.

kiichigo = assay: Experiment 3 foliar application to naturally growing shrubs; type: in vivo, Rubus palmatsu Thunb. forma coptophyllus Makino; conditions: after 3 months
Text: as §1, §2, §3, §4

manna grass = assay: Experiment 1 foliar application to naturally growing weeds; type: in vivo, Digitaria adsceudes Henr.; conditions: 2 months
Text: as §1, §2, §5, §6, §7

Japanese prickly ash = assay: Experiment 3 foliar application to naturally growing shrubs; type: in vivo, Xanthoxylum piperitum DC.; conditions: after 3 months
Text: as §1, §2, §3, §4

white clover = assay: Experiment 1 foliar application to naturally growing weeds; type: in vivo, Trifolium repens L.; conditions: for Reproduction-inhibiting effect: 4 months; for Killing index of Upperground parts: 21 days
Text: as §1, §2, §5, §6, §7

azumanezasa = assay: as above; type: in vivo, Pleioblastus Chino Makino; conditions: 4 months
Text: as §1, §2, §5, §6, §7

warunasubi = assay: as above; type: in vivo, Solanum carolinensis L.; conditions: 4 months
Text: as §1, §2, §5, §6, §7

eulalia = assay: Experiment 2 foliar application in Japanese cypress afforested land; type: in vivo, Miscanthus sinensis Andress.; design: key: 0 = no effect, 5 = death; conditions: 0.125%; after 3 months
Method: as §1
(§8) The compounds of the invention and other compounds listed in Table 4. were diluted to prescribed concentrations and sprayed to shrubs by foliar application in a Japanese cypress afforested land in an amount of 150 liter per 10 are.
(§9) After 30 days and 3 months, the killing index (0, no effect; 5, death) was determined.
(§10) The heights of plants were 50-70 cm. for Japanese cypress, about 50 cm. for chestnut, 50-90 cm. for miyakozasa, about 100 cm. for eulalia and 70-100 cm. for kumaichigo, respectively.

yamazakura = assay: Experiment 3 foliar application to naturally growing shrubs; type: in vivo, Prunus donarium Sieb. var. spontanae Makino; conditions: after 3 months
Text: as §1, §2, §3, §4

cockspar grass = assay: Experiment 1 foliar application to naturally growing weeds; type: in vivo, Echinochloa Crusgalli P. Beauv.; conditions: 2 months
Text: as §1, §2, §5, §6, §7

purple nutsedge = assay: as above; type: in vivo, Cyperus rotundus L.; conditions: 4 months
Text: as §1, §2, §5, §6, §7

kumaichigo = assay: Experiment 2 foliar application in Japanese cypress afforested land; type: in vivo, Rubus crataegifolius Bunge
Method: as §1, §8, §9, §10

hedge bindweed = assay: Experiment 1 foliar application to naturally growing weeds; type: in vivo, Calystegis hederacea Wall.; conditions: 4 months
Text: as §1, §2, §5, §6, §7

oak = assay: Experiment 3 foliar application to naturally growing shrubs; type: in vivo, Quercus serrata Thunb; conditions: after 3 months
Text: as §1, §2, §3, §4

lace shrub = assay: as above; type: in vivo, Stephanandra incisa Zabel; conditions: after 3 months
Text: as §1, §2, §3, §4

torch azalea = assay: as above; type: in vivo, Rhododendoron Kaempferi Planch.; conditions: after 3 months
Text: as §1, §2, §3, §4

yabugarashi = assay: Experiment 1 foliar application to naturally growing weeds; type: in vivo, Cayratia japonica Houtt.; conditions: 4 months
Text: as §1, §2, §5, §6, §7

water hyacinth = assay: Experiment 5 foliar application to water hyacinths; type: in vivo, Eichhornia crassipes Solms; design: key to Killing index: 0 = no effect, 5 = death; conditions: for Reproduction-inhibiting effect: 3 months
Text: as §1, §2
Water was placed in 20 cm.×30 cm. plastic vessels and a liquid fertilizer was added thereto. Two water hyacinths were floated in each vessel.
0.1 or 0.2% aqueous solutions of each of the compounds of the invention listed in Table 7 were sprayed by foliar application in an amount of 100 liter per 10 are. As a surfactant, 0.1% of octylphenyl polyoxyethanol was added.
The killing index (0, no effect; 5, death) after 21 days and 3 months, and the reproduction-inhibiting effect (-, no reproduction; +++, maximum reproduction) after 3 months were determined.

CP(=O)(O)CCC(N)C(=O)O (racemic) [DL-2-Amino-4-methylphosphinobutanoic acid monodiethanolammon] [DL-2-Amino-4-methylphosphinobutanoic acid monodiethanolammonium salt]
++: Reproduction-inhibiting (Japanese bush cranberry; 0.1%) | Reproduction-inhibiting (Japanese bush cranberry; 0.2%) | Reproduction-inhibiting effect (chigaya; 0.1%) | Reproduction-inhibiting (kiichigo; 0.1%) | Reproduction-inhibiting effect (manna grass; 0.1%) | Reproduction-inhibiting (Japanese prickly ash; 0.1%) | Reproduction-inhibiting (yamazakura; 0.1%) | Reproduction-inhibiting effect (cockspar grass; 0.1%) | Reproduction-inhibiting (oak; 0.1%) | Reproduction-inhibiting (lace shrub; 0.1%) | Reproduction-inhibiting (torch azalea; 0.1%) | Reproduction-inhibiting effect (yabugarashi; 0.2%)
+++: Reproduction-inhibiting (Japanese bush cranberry; 0.05%) | Reproduction-inhibiting effect (chigaya; 0.05%) | Reproduction-inhibiting (kiichigo; 0.05%) | Reproduction-inhibiting effect (manna grass; 0.05%) | Reproduction-inhibiting (Japanese prickly ash; 0.05%) | Reproduction-inhibiting effect (white clover; 0.05%) | Reproduction-inhibiting effect (white clover; 0.1%) | Reproduction-inhibiting effect (azumanezasa; 0.05%) | Reproduction-inhibiting effect (warunasubi; 0.05%) | Reproduction-inhibiting effect (warunasubi; 0.1%) | Reproduction-inhibiting (yamazakura; 0.05%) | Reproduction-inhibiting effect (cockspar grass; 0.05%) | Reproduction-inhibiting effect (purple nutsedge; 0.05%) | Reproduction-inhibiting effect (purple nutsedge; 0.1%) | Reproduction-inhibiting effect (hedge bindweed; 0.05%) | Reproduction-inhibiting effect (hedge bindweed; 0.1%) | Reproduction-inhibiting effect (hedge bindweed; 0.2%) | Reproduction-inhibiting (oak; 0.05%) | Reproduction-inhibiting (lace shrub; 0.05%) | Reproduction-inhibiting (torch azalea; 0.05%) | Reproduction-inhibiting effect (yabugarashi; 0.05%) | Reproduction-inhibiting effect (yabugarashi; 0.1%)
+: Reproduction-inhibiting effect (azumanezasa; 0.1%) | Reproduction-inhibiting effect (warunasubi; 0.2%) | Reproduction-inhibiting effect (purple nutsedge; 0.2%)
2.5: Killing index of Upperground parts (chigaya; 0.05%, 21 days)
-: Reproduction-inhibiting effect (chigaya; 0.2%) | Reproduction-inhibiting (kiichigo; 0.2%) | Reproduction-inhibiting effect (manna grass; 0.2%) | Reproduction-inhibiting (Japanese prickly ash; 0.2%) | Reproduction-inhibiting effect (white clover; 0.2%) | Reproduction-inhibiting effect (azumanezasa; 0.2%) | Reproduction-inhibiting (yamazakura; 0.2%) | Reproduction-inhibiting effect (cockspar grass; 0.2%) | Reproduction-inhibiting (oak; 0.2%) | Reproduction-inhibiting (lace shrub; 0.2%) | Reproduction-inhibiting (torch azalea; 0.2%)
1.5: Killing index (eulalia) | Killing index (kumaichigo; 0.125%, after 3 months)

C[C@H](NC(=O)[C@H](C)NC(=O)[C@@H](N)CCP(C)(=O)O)C(=O)O [monosodium salt]
+: Reproduction-inhibiting (Japanese bush cranberry; 0.1%, monosodium salt) | Reproduction-inhibiting (kiichigo; 0.1%, monosodium salt) | Reproduction-inhibiting (Japanese prickly ash; 0.1%, monosodium salt) | Reproduction-inhibiting effect (white clover; 0.2%, monosodium salt) | Reproduction-inhibiting effect (water hyacinth; 0.1%, listed as SF-1293 monosodium salt, monosodium salt) | Reproduction-inhibiting effect (azumanezasa; 0.1%, monosodium salt) | Reproduction-inhibiting effect (warunasubi; 0.2%, monosodium salt) | Reproduction-inhibiting effect (purple nutsedge; 0.2%, monosodium salt)
++: Reproduction-inhibiting effect (chigaya; 0.1%, monosodium salt) | Reproduction-inhibiting effect (manna grass; 0.1%, monosodium salt) | Reproduction-inhibiting (yamazakura; 0.1%, monosodium salt) | Reproduction-inhibiting effect (cockspar grass; 0.1%, monosodium salt) | Reproduction-inhibiting (oak; 0.1%, monosodium salt) | Reproduction-inhibiting (lace shrub; 0.1%, monosodium salt) | Reproduction-inhibiting (torch azalea; 0.1%, monosodium salt) | Reproduction-inhibiting effect (yabugarashi; 0.1%, monosodium salt)
±: Reproduction-inhibiting effect (manna grass; 0.2%, monosodium salt) | Reproduction-inhibiting effect (cockspar grass; 0.2%, monosodium salt) | Reproduction-inhibiting effect (yabugarashi; 0.2%, monosodium salt)
4.5: Killing index (water hyacinth; 0.2%, 21 days, listed as SF-1293 monosodium salt, monosodium salt) | Killing index (kumaichigo; 0.25%, after 30 days, monosodium salt)
+++: Reproduction-inhibiting (Japanese bush cranberry; 0.05%, monosodium salt) | Reproduction-inhibiting (kiichigo; 0.05%, monosodium salt) | Reproduction-inhibiting effect (manna grass; 0.05%, monosodium salt) | Reproduction-inhibiting (Japanese prickly ash; 0.05%, monosodium salt) | Reproduction-inhibiting effect (white clover; 0.05%, monosodium salt) | Reproduction-inhibiting effect (white clover; 0.1%, monosodium salt) | Reproduction-inhibiting effect (azumanezasa; 0.05%, monosodium salt) | Reproduction-inhibiting effect (warunasubi; 0.05%, monosodium salt) | Reproduction-inhibiting effect (warunasubi; 0.1%, monosodium salt) | Reproduction-inhibiting (yamazakura; 0.05%, monosodium salt) | Reproduction-inhibiting effect (cockspar grass; 0.05%, monosodium salt) | Reproduction-inhibiting effect (purple nutsedge; 0.05%, monosodium salt) | Reproduction-inhibiting effect (purple nutsedge; 0.1%, monosodium salt) | Reproduction-inhibiting effect (hedge bindweed; 0.05%, monosodium salt) | Reproduction-inhibiting effect (hedge bindweed; 0.1%, monosodium salt) | Reproduction-inhibiting effect (hedge bindweed; 0.2%, monosodium salt) | Reproduction-inhibiting (oak; 0.05%, monosodium salt) | Reproduction-inhibiting (lace shrub; 0.05%, monosodium salt) | Reproduction-inhibiting (torch azalea; 0.05%, monosodium salt) | Reproduction-inhibiting effect (yabugarashi; 0.05%, monosodium salt)
1.5: Killing index of Upperground parts (white clover; 0.05%, monosodium salt)
3.5: Killing index of Upperground parts (white clover; 0.1%, monosodium salt)
-: Reproduction-inhibiting (Japanese bush cranberry; 0.2%) | Reproduction-inhibiting effect (chigaya; 0.2%) | Reproduction-inhibiting (kiichigo; 0.2%) | Reproduction-inhibiting (Japanese prickly ash; 0.2%) | Reproduction-inhibiting effect (water hyacinth; 0.2%) | Reproduction-inhibiting effect (azumanezasa; 0.2%) | Reproduction-inhibiting (yamazakura; 0.2%) | Reproduction-inhibiting (oak; 0.2%) | Reproduction-inhibiting (lace shrub; 0.2%) | Reproduction-inhibiting (torch azalea; 0.2%)
